Calls of active or inactive are those of the source. The rule behind the calls is not given here.
Tested on: CCRIS mutagenicity, Ames/micronucleus/aberration tests
Assay: CCRIS mutagenicity studies

O=C(O)CN(CCN(CC(=O)O)CC(=O)O)CC(=O)O
mutagenic call (Test System: AMES SALMONELLA TYPHIMURIUM, Strain/Indicator: TA1535, Metabolic Activation: HAMSTER, LIVER, S-9, AROCLOR 1254 (30%), Method: PREINCUBATION): inactive; negative | mutagenic call (Test System: AMES SALMONELLA TYPHIMURIUM, Strain/Indicator: TA1535, Metabolic Activation: HAMSTER, LIVER, S-9, AROCLOR 1254, Method: STANDARD PLATE): inactive; negative | mutagenic call (Test System: AMES SALMONELLA TYPHIMURIUM, Strain/Indicator: TA1535, Metabolic Activation: NONE, Method: PREINCUBATION): inactive; negative | mutagenic call (Test System: AMES SALMONELLA TYPHIMURIUM, Strain/Indicator: TA1535, Metabolic Activation: NONE, Method: STANDARD PLATE): inactive; negative | mutagenic call (Test System: AMES SALMONELLA TYPHIMURIUM, Strain/Indicator: TA1535, Metabolic Activation: RAT LIVER S-9, PHENOBARBITAL AND BETA-NAPHTHOFLAVONE, Method: PREINCUBATION): inactive; negative | mutagenic call (Test System: AMES SALMONELLA TYPHIMURIUM, Strain/Indicator: TA1535, Metabolic Activation: RAT, LIVER, S-9, AROCLOR 1254 (10%), Method: PREINCUBATION): inactive; negative | mutagenic call (Test System: AMES SALMONELLA TYPHIMURIUM, Strain/Indicator: TA1535, Metabolic Activation: RAT, LIVER, S-9, AROCLOR 1254 (30%), Method: PREINCUBATION): inactive; negative | mutagenic call (Test System: AMES SALMONELLA TYPHIMURIUM, Strain/Indicator: TA1535, Metabolic Activation: RAT, LIVER, S-9, AROCLOR 1254, Method: STANDARD PLATE): inactive; negative | mutagenic call (Test System: AMES SALMONELLA TYPHIMURIUM, Strain/Indicator: TA1537, Metabolic Activation: HAMSTER, LIVER, S-9, AROCLOR 1254, Method: STANDARD PLATE): inactive; negative | mutagenic call (Test System: AMES SALMONELLA TYPHIMURIUM, Strain/Indicator: TA1537, Metabolic Activation: NONE, Method: PREINCUBATION): inactive; negative | mutagenic call (Test System: AMES SALMONELLA TYPHIMURIUM, Strain/Indicator: TA1537, Metabolic Activation: NONE, Method: STANDARD PLATE): inactive; negative | mutagenic call (Test System: AMES SALMONELLA TYPHIMURIUM, Strain/Indicator: TA1537, Metabolic Activation: RAT LIVER S-9, PHENOBARBITAL AND BETA-NAPHTHOFLAVONE, Method: PREINCUBATION): inactive; negative | mutagenic call (Test System: AMES SALMONELLA TYPHIMURIUM, Strain/Indicator: TA1537, Metabolic Activation: RAT, LIVER, S-9, AROCLOR 1254, Method: STANDARD PLATE): inactive; negative | mutagenic call (Test System: AMES SALMONELLA TYPHIMURIUM, Strain/Indicator: TA1538, Metabolic Activation: HAMSTER, LIVER, S-9, AROCLOR 1254, Method: STANDARD PLATE): inactive; negative | mutagenic call (Test System: AMES SALMONELLA TYPHIMURIUM, Strain/Indicator: TA1538, Metabolic Activation: NONE, Method: STANDARD PLATE): inactive; negative | mutagenic call (Test System: AMES SALMONELLA TYPHIMURIUM, Strain/Indicator: TA1538, Metabolic Activation: RAT, LIVER, S-9, AROCLOR 1254, Method: STANDARD PLATE): inactive; negative | mutagenic call (Test System: E. COLI, Strain/Indicator: WP2 UVRA, Metabolic Activation: HAMSTER, LIVER, S-9, AROCLOR 1254, Method: STANDARD PLATE): inactive; negative | mutagenic call (Test System: E. COLI, Strain/Indicator: WP2 UVRA, Metabolic Activation: HAMSTER, LIVER, S-9, Method: STANDARD PLATE): inactive; negative | mutagenic call (Test System: E. COLI, Strain/Indicator: WP2 UVRA, Metabolic Activation: MOUSE, LIVER, S-9, AROCLOR 1254, Method: STANDARD PLATE): inactive; negative | mutagenic call (Test System: E. COLI, Strain/Indicator: WP2 UVRA, Metabolic Activation: MOUSE, LIVER, S-9, Method: STANDARD PLATE): inactive; negative | mutagenic call (Test System: E. COLI, Strain/Indicator: WP2 UVRA, Metabolic Activation: NONE, Method: STANDARD PLATE): inactive; negative | mutagenic call (Test System: E. COLI, Strain/Indicator: WP2 UVRA, Metabolic Activation: RAT, LIVER, S-9, AROCLOR 1254, Method: STANDARD PLATE): inactive; negative | mutagenic call (Test System: E. COLI, Strain/Indicator: WP2 UVRA, Metabolic Activation: RAT, LIVER, S-9, Method: STANDARD PLATE): inactive; negative | mutagenic call (Test System: E.COLI, Strain/Indicator: WP2UVRA/PKM101, Metabolic Activation: NONE, Method: PREINCUBATION): inactive; negative | mutagenic call (Test System: E.COLI, Strain/Indicator: WP2UVRA/PKM101, Metabolic Activation: RAT LIVER S-9, PHENOBARBITAL AND BETA-NAPHTHOFLAVONE, Method: PREINCUBATION): inactive; negative | mutagenic call (Test System: E.COLI, Strain/Indicator: WP2UVRA, Metabolic Activation: NONE, Method: PREINCUBATION): inactive; negative | mutagenic call (Test System: E.COLI, Strain/Indicator: WP2UVRA, Metabolic Activation: RAT LIVER S-9, PHENOBARBITAL AND BETA-NAPHTHOFLAVONE, Method: PREINCUBATION): inactive; negative | mutagenic call (Test System: MOUSE LYMPHOMA, Strain/Indicator: L5178Y (TK+/TK-), Metabolic Activation: NONE, Method: SUSPENSION/PLATE): active; positive | mutagenic call (Test System: Mouse lymphoma, Strain/Indicator: L5178Y (tk+/tk-), Metabolic Activation: None, Method: Suspension/plate): inactive; negative | mutagenic call (Test System: Mouse lymphoma, Strain/Indicator: L5178Y (tk+/tk-), Metabolic Activation: Rat, Liver, S-9, Aroclor 1254, Method: Suspension/plate): inactive; negative

From PubChem BioAssay AID1259407 (Chemical Carcinogenesis Research Information System (CCRIS), 2018)
